# Earlier results in US20070093966A1, “Drug candidate selection by hydrogen exchange characterization of ligand-induced receptor conformation” (ExSAR CORPORATION, priority 2004, published 2007).
# Test system: endogenous gene CAP in 3T3-L1 adipocytes
# Details: Camp et al.
structure (smiles),measurement,value
Cc1c(C)c2c(c(C)c1O)CCC(C)(COc1ccc(CC3SC(=O)NC3=O)cc1)O2 (stereo not shown) [troglitazone],"agonist profile, induction of the endogenous gene CAP",full agonist
